Results published in patent US3950374A, “Carbamate pesticide” (priority 1972, dated 1976).
Values after ≈ are worked out from the molar mass of the structure shown. Read-outs that look alike come from different tables or passages of the source.

What was measured:
Type in all cases: in vivo
[1] = system: larvae of northern house mosquito (Culex pipien pallens); assay: Effect on mosquito larvae (Test Example 8)
Description: Effect on mosquito larvae.
200 ml. of an aqueous solution of each emulsifiable concentrate of the present compounds which is adjusted to the concentration of 1 ppm with pure water are placed in a 300 ml. beaker and 30 larvae of northern house mosquito (Culex pipien pallens) are released therein. the mortality rate is calculated.

[2] = system: smaller brown planthoppers (Loadelphax striatellus); assay: Residual effect on smaller brown planthoppers (Test Example 11); conditions: 1000 fold dilute solution of 50 % emulsifiable concentrate; for Mortality after 4 days: after 4 days (residual effect); for Mortality after 7 days: after 7 days (residual effect)
Description: Residual effect on smaller brown planthoppers (Loadelphax striatellus).
From 18 to 23 rice plants are grown into a 3 - 4 leaves stage in each flower pot of 10 cm. in diameter, then a 1000 fold aqueos dilute solution of each 50 % emulsifiable concentrate of the present componds is applied thereto. After air-drying, each pot is covered with a wire cage, and 20 - 30 adult planthoppers are released therein, and after 24 hours the mortality rate is calculated. Furthermore, the planthoppers are released each day to investigate the residual effect of the present compounds.

nematode = assay: Effect on nematode (Test Example 6); conditions: 500 ppm active ingredient; after 24 hours
Description: 0.5 ml. of a nematode-containing aqueous solution separated from food is placed in a test tube with ground stopper containing 0.5 ml. of an aqueous dilute solution of each emulsifiable concentrate of the present compounds. The concentration of the active ingredient in the mixture is adjusted to 500 ppm. After 24 hours, the number of dead and live nematodes are observed microscopically to calculate the mortality rate.

[3] = system: smaller brown planthoppers (Lacdelphax striatellus); assay: Lethal effect on smaller brown planthoppers (Test Example 1)
Description: Lethal effect on smaller brown planthoppers (Lacdelphax striatellus)
Rice plants (15 to 20 cm tall) 15 days after germination, are dipped for 1 minute into each aqueous dilute solution of the present compounds in the form of emulsifiable concentrates, and placed in large glass tubes separately after air-drying. Thereafter, 20 to 30 adult planthoppers are released therein and covered with a wire net. After 24 hours, the number of dead and live planthoppers are observed to calculate LC50. The number of the compounds in Table 1 correspond to those of the compounds mentioned above.

[4] = system: green rice leafhoppers (Nephotettix cincpiceps); assay: Effect on green rice leafhoppers in soil treatment (Test Example 4); conditions: 6 % granules, 6 kg./10 ares soil treatment; released after 3 days, observed after 24 hours
Description: Effect on green rice leafhoppers (Nephotettix cincpiceps) in soil treatment.
(§1) Each of 6 % granules of the present compounds is applied in a ratio of 6 kg./10 ares near the root of rice plants grown into the tillering stage in a 1/100,000 Wagner's pot. After 3 days, 30 adult leafhoppers are released and covered with a wire cage. After 24 hours, the number of dead and live leafhoppers are observed to calculate the mortality rate.

[5] = system: rice stem borer (Chilo suppressalis); assay: Lethal effect on rice stem borer (Test Example 5); conditions: 1000 fold dilute solution of 50 % emulsifiable concentrate; 4 days after application
From the text: Lethal effect on rice stem borer (Chilo suppressalis).
Eggs just before hatching of the rice stem borer are applied in a ratio of 100/pot near the root of rice plants grown into the tillering stage in a 1/100,000 Wagner's pot. After the eggs hatched and the larvae enter into stems of rice plants, a 1000 fold dilute solution of each 50 % emulsifiable concentrate of the present compounds is applied by means of a turn table. The number of dead and live stem borers are observed to calculate the mortality rate 4 days after application.

[6] = system: smaller brown planthoppers (Laodelphax striatellus); assay: Effect on smaller brown planthoppers in soil treatment (Test Example 2); conditions: 6 % granules, 6 kg./10 ares soil treatment; released after 3 days, observed after 24 hours
Description: Effect on smaller brown planthoppers (Laodelphax striatellus) in soil treatment.
as §1, with “stage” for “stage in”, “planthoppers” for “leafhoppers”

[7] = system: green peach aphids (Myzus persicae); assay: Effect on green peach aphids in soil treatment (Test Example 3); conditions: 5 % granules, 6 kg./10 ares soil treatment; after 3 days; chinese cabbages
From the text: Effect on green peach aphids (Myzus persicae) in soil treatment.
Many of the aphids are made parasitic on chinese cabbages grown in a pot one month after sowing, and each of 5 % granules of the present compounds is applied in a ratio of 6 kg./10 ares near the root thereof. After 3 days, the number of dead and live aphids are observed to calculate the mortality rate.

[8] = system: tobacco cut worm (Spodoptera litura); assay: Effect on tobacco cut worm (Test Example 7); conditions: 1000 fold dilute solution of emulsifiable concentrate, fourth instar larvae
Description: Effect on tobacco cut worm (Spodoptera litura).
A 1000 fold dilute solution of each emulsifiable concentrate of the present compounds is applied by means of a turn table to a potted chinese cabbage 60 days after sowing. After air-drying, fourth instar larvae of the tobacco cut worm are released and the mortality rate after 24 hours and 48 hours is calculated.

[9] = system: carmine mite (Tetranychus telarius); assay: Acaricidal activity on carmine mite (Test Example 10); conditions: 1000 fold dilute solution of 40 % wettable powder, 10 ml./pot, after 10 days
Description: Acaricidal activity on carmine mite (Tetranychus telarius).
From 10 to 15 female carmine mites are made parasitic, in a ratio of 10 - 15/leaf, on leaves of potted kidney beans is (a leaves stage), 9 days after sowing, and kept at 27°C. For a week in a constant temperature room, then breeding of numerous carmine mites at various growth stages can be observed. At this time, a 1000 fold aqueous dilute solution of each 40 % wettable powder of the present compounds is sprayed by means of a turn table in a ratio of 10 ml./pot. After 10 days, the degree of damage of kidney beans and the degree of breeding of mites are observed and classified into five grades (-, +, […] , +++, ++++ ).
The degree of damage of kidney bean leaves:
-; damage is hardly observed, […]
and the degree of damage in between the two extremes is classified into three grades.
The degree of breeding of carmine mites: -; the number alive is less than 10, ++++; the alive are numerous, and the degree of breeding in between the two extremes is classified into three grades.

Which mortality at 1 ppm [1] does the source give for `Cc1ccc(OC(=O)N(C)[S+]([O-])c2ccccc2)cc1C` (stereo not drawn) [Compound 6] here?
Its mortality at 1 ppm is 70%.

What about the “Mortality after 1 day” value [2] of the same molecule?
The value was 90.0%.

What about the “Mortality after 4 days” value [2] of the same molecule?
Its value is 63.3%.

What about the “Mortality after 7 days” value [2] of the same molecule?
The value was 50.0%.

What about the Mortality (nematode) of the same molecule?
Its Mortality is 100%.

What about the LC50 ([3]; 24 h) of the same molecule?
Its LC50 is 25 µg/mL (≈ 82.4 µM).

For `CCCSC(C)=NOC(=O)N(C)[S+]([O-])c1ccc(Cl)cc1` (stereo not drawn) [Compound 21], which Mortality (nematode) is on record?
Its Mortality is 65.0%.

Which “Mortality after 1 day” value [2] does the source give for `Cc1ccc(OC(=O)N(C)[S+]([O-])c2ccc([N+](=O)[O-])cc2)cc1C` (stereo not drawn) [Compound 10] here?
Its value is 100%.

And the “Mortality after 4 days” value [2]?
The value was 50.0%.

And the “Mortality after 7 days” value [2]?
The value was 23.3%.

And the LC50 ([3]; 24 h)?
The LC50 was 33 µg/mL (≈ 94.7 µM).

And the Mortality [4]?
The Mortality was 72.2%.

Which “Mortality after 1 day” value [2] does the source give for `Cc1cccc(OC(=O)N(C)[S+]([O-])c2ccccc2)c1` (stereo not drawn) [Compound 7] here?
Its value is 86.7%.

And the “Mortality after 4 days” value [2]?
Its value is 65.0%.

And the “Mortality after 7 days” value [2]?
Its value is 46.7%.

And the LC50 ([3]; 24 h)?
Its LC50 is 43 µg/mL (≈ 149 µM).

And the Mortality [4]?
The Mortality was 96.7%.

Which results are given for `Cc1ccc(OC(=O)N(C)[S+]([O-])c2ccc(Cl)cc2)cc1C` (stereo not drawn) [Compound 11]?
mortality at 1 ppm [1]: 100%; Mortality after 1 day [2]: 100%; Mortality after 4 days [2]: 85.0%; Mortality after 7 days [2]: 75.0%; Mortality (nematode): 75.0%; LC50 ([3]; 24 h): 40 µg/mL (≈ 118 µM)

With `CCC(=NOC(=O)N(C)[S+]([O-])c1ccccc1)SC` (stereo not drawn) [Compound 19] as the molecule, how does the Mortality [5] read?
The Mortality was 66.7%.

With `Cc1ccc([S+]([O-])N(C)C(=O)Oc2cccc(C)c2C)cc1` (stereo not drawn) [Compound 9] as the molecule, how does the mortality at 1 ppm [1] read?
The mortality at 1 ppm was 66.7%.

And the “Mortality after 1 day” value [2]?
Its value is 100%.

What about the “Mortality after 4 days” value [2] of the same molecule?
The value was 62.3%.

What about the “Mortality after 7 days” value [2] of the same molecule?
The value was 30.0%.

What about the LC50 ([3]; 24 h) of the same molecule?
The LC50 was 29 µg/mL (≈ 91.4 µM).

And the Mortality [4]?
The Mortality was 83.3%.

With `Cc1cc(C)cc(OC(=O)N(C)[S+]([O-])c2ccccc2)c1` (stereo not drawn) [Compound 5] as the molecule, how does the “Mortality after 1 day” value [2] read?
Its value is 100%.

And the “Mortality after 4 days” value [2]?
The value was 100%.

What about the “Mortality after 7 days” value [2] of the same molecule?
The value was 45.0%.

What about the LC50 ([3]; 24 h) of the same molecule?
Its LC50 is 18 µg/mL (≈ 59.3 µM).

What about the Mortality [4] of the same molecule?
Its Mortality is 68.0%.

Which “Mortality after 1 day” value [2] does the source give for `CN(C(=O)Oc1ccc(Cl)cc1)[S+]([O-])c1ccccc1` (stereo not drawn) [Compound 2] here?
Its value is 96.7%.

And the “Mortality after 4 days” value [2]?
The value was 75.0%.

And the “Mortality after 7 days” value [2]?
The value was 20.0%.

What about the Mortality (nematode) of the same molecule?
The Mortality was 79.8%.

What about the LC50 ([3]; 24 h) of the same molecule?
Its LC50 is 20 µg/mL (≈ 64.6 µM).

What about the Mortality [4] of the same molecule?
The Mortality was 75.0%.

What does the source list for `CCCCCCCCCCCC[S+]([O-])N(C)C(=O)ON=C(C)SC` (stereo not drawn) [Compound 14]?
Mortality [6]: 90.0%; Mortality (nematode): 100%; Mortality [7]: 76.5%; Mortality After 24 hrs. [8]: 90%; Mortality After 48 hrs. [8]: 100%

With `CSC(C)=NOC(=O)N(C)[S+]([O-])c1ccccc1` (stereo not drawn) [Compound 15] as the molecule, how does the mortality at 1 ppm ([1]; 1 ppm aqueous solution of emulsifiable concentrate, 30 larvae, time not stated, read-out: Mortality) read?
The mortality at 1 ppm was 78.3%.

And the Mortality [5]?
Its Mortality is 82.3%.

What about the Mortality (nematode) of the same molecule?
The Mortality was 100%.

And the Mortality [7]?
The Mortality was 95.9%.

What about the Degree of breeding ([9]; carmine mites) of the same molecule?
The Degree of breeding was “- (the number alive is less than 10)”.

What about the Degree of damage ([9]; kidney bean leaves) of the same molecule?
Its Degree of damage is “-~+”.

And the LC50 ([3]; rice plants dipped 1 minute in dilute emulsifiable concentrate, after 24 hours, read-out: LC50)?
Its LC50 is 123 µg/mL (≈ 430 µM).

And the Mortality [4]?
The Mortality was 70.0%.

Which results are given for `Cc1ccc(OC(=O)N(C)[S+]([O-])c2ccccc2)c(C)c1` (stereo not drawn) [Compound 4]?
Mortality after 1 day [2]: 100%; Mortality after 4 days [2]: 83.3%; Mortality after 7 days [2]: 53.3%; LC50 ([3]; 24 h): 33 µg/mL (≈ 109 µM)

`Cc1cccc(OC(=O)N(C)[S+]([O-])c2ccccc2)c1C` (stereo not drawn) [Compound 3] was tested. Which “Mortality after 1 day” value [2] did it give?
Its value is 100%.

And the “Mortality after 4 days” value [2]?
The value was 64.0%.

And the “Mortality after 7 days” value [2]?
Its value is 50.0%.

What about the LC50 ([3]; 24 h) of the same molecule?
Its LC50 is 70 µg/mL (≈ 231 µM).

For `Cc1ccc([S+]([O-])N(C)C(=O)Oc2ccc(C)c(C)c2)cc1` (stereo not drawn) [Compound 8], which mortality at 1 ppm [1] is on record?
The mortality at 1 ppm was 100%.

And the “Mortality after 1 day” value [2]?
Its value is 85.0%.

What about the “Mortality after 4 days” value [2] of the same molecule?
The value was 50.0%.

What about the “Mortality after 7 days” value [2] of the same molecule?
Its value is 42.0%.

What about the LC50 ([3]; 24 h) of the same molecule?
The LC50 was 50 µg/mL (≈ 158 µM).

Which results are given for `CNC(=O)Oc1ccc(C)c(C)c1` [Meobal, 3,4-dimethylphenyl-N-methylcarbamate, reference compound]?
Mortality after 1 day [2]: 100%; Mortality after 4 days [2]: 53.2%; Mortality after 7 days [2]: 10.0%

What does the source list for `CCC[S+]([O-])N(C)C(=O)ON=C(C)SC` (stereo not drawn) [Compound 13]?
Mortality [5]: 83.2%; Mortality (nematode): 100%; Mortality [7]: 96.7%; Mortality After 24 hrs. [8]: 100%; Mortality After 48 hrs. [8]: 100%
